Reference: patent US7323490B2, “Pyrrole compounds and uses thereof” (Ambit Biosciences Corporation, priority 2003, dated 2008)

Legend:
[1] = tested on: focal cerebral ischemia; test: Rat MCAO model, time schedules of administration (Example 11); type: in vivo; conditions: 25 hrs post, 48 h
Description: The compounds were tested on a standardized rodent focal cerebral ischemia model produced by permanent occlusion of the right middle cerebral artery (MCA) plus one hour of tandem carotid artery occlusion according to Chen et al. A total of 96 animals underwent MCAo using subcutaneous administration of all test articles, according to the experimental design illustrated in Table 5 below. Three compounds at one predetermined dose were compared to vehicle and assigned to three different time schedules of administration relative to the time of MCAo. […] The time schedules for administration of all treated groups were divided as follows:
A second group of eighteen animals were used to test compound A (782236) using the treatment schedule, shown (a, b & c) above via intravenous (I.V.) administration. Groups of n=5 animals per treatment time period with compound A and 3 animals per control group via tail vein.
Animal Preparation and Middle Cerebral Artery Occlusion. Male, adult, Sprague-Dawley rats (Charles River), weighing 300-400 grams, were used for the study. All animals were acclimated at least for five days before entering the study. Animals were housed in a standard animal facility and fed with commercial rodent chow ad libitum. All animals were anesthetized via intramuscular injection (4 mL/kg) of “cocktail” containing ketamine (25 mg/mL), xylazine (1.3 mg/mL) and acepromazine (0.33 mg/mL). Both carotid arteries were separated with great caution to minimize the vagal nerve stimulation. The right proximal MCA trunk was exposed through a subtemporal craniectomy without transecting the facial nerve. […] Immediately following MCA occlusion, both of the common carotid arteries were occluded for 1 hour using surgical aneurysm micro-clips (ROBOZ INC). Animals were put into temperature regulated recovery chamber for 1 hour before the clips were removed from the common carotid arteries. Body temperature was maintained at 37±0.5° C. during the surgery using a heating blanket connected to a temperature controller.
Experimental Groups and Compound Administration. A total of 96 animals underwent MCAo using subcutaneous administration of all test articles, according to the experimental design illustrated in Table 5 below. Three compounds at one predetermined dose were compared to vehicle and assigned to three different time schedules of administration relative to the time of MCAo. […] The time schedules for administration of all treated groups were divided as follows:
A second group of eighteen animals were used to test compound A (782236) using the treatment schedule, shown (a, b & c) above via I.V. administration. Groups of n=5 animals per treatment time period with compound A and 3 animals per control group via tail vein.
Infarct Measurement. Forty-eight hours following MCAo, animals were euthanized with inhalation of CO2. Brains were removed and chilled in ice saline for 10 min. The brains were put in a metal rodent brain slicer. Each rat brain was cut coronally into 7 sections, with each section being 2 mm thick. The brain sections were immersed in 2% TTC solution for 30 min at 37° C. The areas of cerebral infarcts were determined on seven slices, using a computer-interfaced imaging system, Image-Pro® Plus, Version 4.4 for Windows (Media Cybernetics, MD). Infarct areas were then summed among slices and multiplied by slice thickness to give the total infarct volume.
Statistics. All data are expressed as mean±SEM. In Section A, infarct volume was analyzed using Student t Test. A p value of ≦0.05 was considered a statistically significant difference. All statistical analyses were performed with the software package JMP version 4.0 (SAS Institute Inc., Cary, N.C.).

[2] = tested on: focal cerebral infarcts (MCAo); test: Hindlimb placing test, Tamura MCAo model; type: in vivo, rat; conditions: AVG, 0=normal, 6=maximally impaired
Excerpt: Surgical Preparation. Middle Cerebral Artery Occlusion (MCAo), Tamura Model. Focal cerebral infarcts were made by permanent occlusion of the proximal right middle cerebral artery using a modification of the method of Tamura et al. […] The temporalis muscle was bisected and reflected through an incision made midway between the eye and the eardrum canal. The proximal MCA was exposed through a subtemporal craniectomy without removing the zygomatic arch and without transecting the facial nerve. […] Animals were euthanatized at various time periods after MCA occlusion and the brains are removed for histological analysis. Behavioral Analysis. Two behavioral tests were performed, the limb placing and body swing test. […] Limb Placing. The limb placing tests were divided into both forelimb and hindlimb tests. For the forelimb-placing test, the examiner held the rat close to a tabletop and scored the rat's ability to place the forelimb on the tabletop in response to whisker, visual, tactile, or proprioceptive stimulation. Similarly, for the hindlimb placing test, the examiner assessed the rat's ability to place the hindlimb on the tabletop in response to tactile and proprioceptive stimulation. […] Typically, there was a slow and steady recovery of limb placing behavior during the first month after stroke. Experimental Groups and Compound Administration. A total of 80 animals underwent MCAo using subcutaneous administration of all test articles, according to the experimental design illustrated in Table 16. […] All animals were treated with the compound(s)/vehicle(s) as a blinded random investigation. The dose and route of administration is given below in Table 16.

[3] = tested on: focal cerebral infarcts (MCAo); test: Body swing test, Tamura MCAo model; type: in vivo, rat; set-up: unit not given here; conditions: AVG
Excerpt: Surgical Preparation. Middle Cerebral Artery Occlusion (MCAo), Tamura Model. Focal cerebral infarcts were made by permanent occlusion of the proximal right middle cerebral artery using a modification of the method of Tamura et al. […] The temporalis muscle was bisected and reflected through an incision made midway between the eye and the eardrum canal. The proximal MCA was exposed through a subtemporal craniectomy without removing the zygomatic arch and without transecting the facial nerve. […] Animals were euthanatized at various time periods after MCA occlusion and the brains are removed for histological analysis. Behavioral Analysis. Two behavioral tests were performed, the limb placing and body swing test. […] Body Swing Test. The animal was held approximately 1 inch from the base of its tail. It was then elevated to an inch above a surface of a table. The animal was held in the vertical axis, defined as no more than 10° to either the left or the right side. A swing was recorded whenever the animal moves its head out of the vertical axis to either side. Before attempting another swing, the animal must return to the vertical position for the next swing to be counted. Thirty total swings were counted. A normal animal typically has an equal number of swings to either side. Following focal stroke, the animal tends to swing to the contralateral side. There is a slow spontaneous recovery of body swing during the first month after stroke. Experimental Groups and Compound Administration. A total of 80 animals underwent MCAo using subcutaneous administration of all test articles, according to the experimental design illustrated in Table 16. […] All animals were treated with the compound(s)/vehicle(s) as a blinded random investigation. The dose and route of administration is given below in Table 16.

[4] = SC, schedule a: 2 hrs pre, 3 hrs post, doses per Table 5 (782236 1/0.5/0.5, others 10/5/5 mg/kg)
[5] = SC, schedule b: 1 hr post, 3 hrs post, doses per Table 5
[6] = SC, schedule c: 3 hrs post, 6 hrs post, doses per Table 5
[7] = administered six hours after MCAo
[8] = administered three hours after MCAo

Row | SMILES | infarction volume [1, 4] | infarction volume [1, 5] | infarction volume [1, 6] | Hindlimb placing test score, D0 [2, 7] | Hindlimb placing test score, D1 [2, 7] | Hindlimb placing test score, D3 [2, 7] | Hindlimb placing test score, D7 [2, 7] | Hindlimb placing test score, D0 [2, 8] | Hindlimb placing test score, D1 [2, 8] | Hindlimb placing test score, D3 [2, 8] | Hindlimb placing test score, D7 [2, 8] | Body swing test score, D0 [3, 7] | Body swing test score, D1 [3, 7] | Body swing test score, D3 [3, 7] | Body swing test score, D7 [3, 7] | Body swing test score, D0 [3, 8] | Body swing test score, D1 [3, 8] | Body swing test score, D3 [3, 8] | Body swing test score, D7 [3, 8] | also measured
1 | CC(C)c1[nH]c(-c2ccc(F)cc2)c(-c2ccccc2)c1C(=O)Nc1ccccc1 [Compound 781430] | 78.89±28.46 mm^3 | 96.51±31.62 mm^3 | 121.39±22.53 mm^3 | 0 | 5.3 | 3.5 | 3 | 0 | 4.1 | 2.8 | 2.1 | 50 | 19 | 22 | 23 | 50 | 31 | 43 | 44 | 
2 | CC(C)c1c(C(=O)Nc2ccccc2)c(-c2ccccc2)c(-c2ccc(F)cc2)n1CC(O)C(O)C(O)C(O)CO (stereo not drawn) [Compound 782236] | 138.6±35.13 mm^3 | 171.04±33.04 mm^3 | 155.53±29.66 mm^3 | 0 | 4.7 | 4 | 3.3 | 0 | 4.6 | 4 | 3.2 | 50 | 7 | 9 | 23 | 50 | 8 | 27 | 37 | infarction volume ([1]; IV, schedule a: 2 hrs pre, 3 hrs post, 1/0.5/0.5 mg/kg): 186.8±9.2 mm^3; infarction volume ([1]; IV, schedule b: 1 hr post, 3 hrs post): 122.8±17.9 mm^3; infarction volume ([1]; IV, schedule c: 3 hrs post, 6 hrs post): 73.8±18.1 mm^3
3 | CC(C)c1c(C(=O)Nc2ccccc2)c(-c2ccccc2)c(-c2ccc(F)cc2)n1CC[C@@H](O)C[C@@H](O)CC(=O)O [atorvastatin, reference compound] | 80.35±30.41 mm^3 | 121.52±22.58 mm^3 | 127.16±25.77 mm^3 | 0 | 5.9 | 4.9 | 3.5 | 0 | 5.6 | 4.3 | 2.8 | 50 | 19 | 17 | 19 | 50 | 13 | 28 | 41 | 
